Measured values as given in paper PMC2362735, “New semisynthetic vinca alkaloids: chemical, biochemical and cellular studies” (British Journal of Cancer, 1999).

How the values were obtained:
[1] = system: tubulin/microtubule, PFK-bundled microtubules; test: Tubulin polymerization with or without PFK (bundled vs single microtubules): turbidity and pelleting with SDS-PAGE; format: biochemical, calf; conditions: 10 M tubulin, 2 M drug
Description: The numerous antimitotic drugs already developed and therapeu- tically used for a large number of pathologies belong to different classes based on their chemical structure and other distinctive features. Antimitotic drugs usually target the tubulin/microtubule network of the cytoskeleton that is formed by assembly of cyto- plasmic tubulin dimers. The stability of the different microtubular structures varies considerably; some of their functions depend on their lability. The lability is augmented by the extreme sensitivity to various drugs. Several synthetic and natural compounds interact specifically with tubulin and/or microtubule, fundamentally destroying its dynamic character and leading to cell death. […] Because of their extensive clinical use, it is important to synthesize additional agents having at least the same biological activity. […] Nevertheless, it is unclear yet how the anti-calmodulin activity of these drugs is related to their desired and undesired pharmacological effects. […] The synthesis of the KAR derivatives are presented. […] Taxol, GTP and trifluoperazine were purchased from Sigma. All organic reagents for synthesis of the new compounds were obtained from Aldrich and were of the highest grade. All other chemicals were reagent grade commercial preparations. […] Tubulin was stored in 1 M sucrose, 10 mM sodium phosphate buffer, 0.5 mM magnesium chloride and 0.1 mM GTP, pH 7.0, at -80C and dialysed against the appropriate buffer before use. […] PFK, aldolase and glycerol-3-phosphate dehydrogenase- triosephosphate isomerase purified from rabbit skeletal muscle were purchased in ammonium sulphate suspensions from Sigma or Boehringer. The enzyme suspensions were centrifuged at 10 000g for 5 min. The pellets were suspended in the appropriate buffer, then the enzymes were gel filtered or dialysed in the same buffer to remove ammonium sulphate. […] (Figure 1B; R1 , CH3; R2 , CH2 CH2 Cl). […] After 2 h incubation at room temperature, 200 ml dried toluene was added to the reaction mixture. […] The mixture was stirred for 30 min. After separation of the organic phase, it was washed with water (3 x 30 ml) and dried with potassium sulphate and evaporated on a water bath of 35-40C at 20-27 hPa. The resulting material was chromatographed on silica gel (500 g, bead size of 0.040- 0.063 mm) column (30 mm x 500 mm) using ethyl acetate/ethanol (9:1) mixture as eluent. […] The mixture was kept for 4 h at room temperature and then evaporated on a water bath at 40C under a vacuum of 80 hPa to a final volume of 5-6 ml. […] (Figure 1B, R1 , CHO; R2 , CH2 CH2 Cl). […] Synthesis of KAR-4 [3-allyl-2,4-dioxo-3,5-spiro-oxazolidino- 4-deacetoxy-vinblastine] (Figure 1B; R1 , CH3; R2 , CH2 CH=CH2 ). […] NMR measurements were carried out on a Varian Unity plus-500 instrument (500 MHz for 1H and 125 MHz for 13C) in DMSO. Chemical shifts were determined relative to dTMS = 0.00 p.p.m. 1H and 13C signal assignments were verified by a concerted use of two-dimensional 1H-1H and 1H-13C shift correlation methods (DQFCOSY, HSQC, HMBC) and NOESY experiments. The gradient-enhanced DQFCOSY, HSQC, HMBC and NOESY experiments were recorded by using the standard spectrometer software package. A mixing time of tmix = 0.5 s was used for the NOESY experiments. […] Mass spectrum was recorded on a Kratos MS 80 instrument using FAB.

[2] = system: Human neuroblastoma cell line (SH-SY5Y); test: Microculture tetrazolium assay (MTA), cytotoxicity; conditions: read-out: Cytotoxicity MTA IC50, 4-day treatment, MTT
Description: The numerous antimitotic drugs already developed and therapeu- tically used for a large number of pathologies belong to different classes based on their chemical structure and other distinctive features. Antimitotic drugs usually target the tubulin/microtubule network of the cytoskeleton that is formed by assembly of cyto- plasmic tubulin dimers. The stability of the different microtubular structures varies considerably; some of their functions depend on their lability. The lability is augmented by the extreme sensitivity to various drugs. Several synthetic and natural compounds interact specifically with tubulin and/or microtubule, fundamentally destroying its dynamic character and leading to cell death. […] Because of their extensive clinical use, it is important to synthesize additional agents having at least the same biological activity. […] Nevertheless, it is unclear yet how the anti-calmodulin activity of these drugs is related to their desired and undesired pharmacological effects. […] The synthesis of the KAR derivatives are presented. […] Taxol, GTP and trifluoperazine were purchased from Sigma. All organic reagents for synthesis of the new compounds were obtained from Aldrich and were of the highest grade. All other chemicals were reagent grade commercial preparations. […] Tubulin was stored in 1 M sucrose, 10 mM sodium phosphate buffer, 0.5 mM magnesium chloride and 0.1 mM GTP, pH 7.0, at -80C and dialysed against the appropriate buffer before use. […] PFK, aldolase and glycerol-3-phosphate dehydrogenase- triosephosphate isomerase purified from rabbit skeletal muscle were purchased in ammonium sulphate suspensions from Sigma or Boehringer. The enzyme suspensions were centrifuged at 10 000g for 5 min. The pellets were suspended in the appropriate buffer, then the enzymes were gel filtered or dialysed in the same buffer to remove ammonium sulphate. […] (Figure 1B; R1 , CH3; R2 , CH2 CH2 Cl). […] After 2 h incubation at room temperature, 200 ml dried toluene was added to the reaction mixture. […] The mixture was stirred for 30 min. After separation of the organic phase, it was washed with water (3 x 30 ml) and dried with potassium sulphate and evaporated on a water bath of 35-40C at 20-27 hPa. The resulting material was chromatographed on silica gel (500 g, bead size of 0.040- 0.063 mm) column (30 mm x 500 mm) using ethyl acetate/ethanol (9:1) mixture as eluent. […] The mixture was kept for 4 h at room temperature and then evaporated on a water bath at 40C under a vacuum of 80 hPa to a final volume of 5-6 ml. […] (Figure 1B, R1 , CHO; R2 , CH2 CH2 Cl). […] Synthesis of KAR-4 [3-allyl-2,4-dioxo-3,5-spiro-oxazolidino- 4-deacetoxy-vinblastine] (Figure 1B; R1 , CH3; R2 , CH2 CH=CH2 ). […] NMR measurements were carried out on a Varian Unity plus-500 instrument (500 MHz for 1H and 125 MHz for 13C) in DMSO. Chemical shifts were determined relative to dTMS = 0.00 p.p.m. 1H and 13C signal assignments were verified by a concerted use of two-dimensional 1H-1H and 1H-13C shift correlation methods (DQFCOSY, HSQC, HMBC) and NOESY experiments. The gradient-enhanced DQFCOSY, HSQC, HMBC and NOESY experiments were recorded by using the standard spectrometer software package. A mixing time of tmix = 0.5 s was used for the NOESY experiments.

Structure (SMILES): CC[C@]1(O)C[C@@H]2CN(CCc3c([nH]c4ccccc34)[C@@](C(=O)OC)(c3cc4c(cc3OC)N(C)[C@@H]3[C@]45CCN4CC=C[C@@](CC)(C[C@@]36OC(=O)N(CCCl)C6=O)[C@H]45)C2)C1 [KAR-2, 3′-(β-chloroethyl)-2′,4′-dioxo-3,5′-spiro-oxazolidino-4-deacetoxy-vinblastine]
- tubulin partition in pelleting experiment, without PFK ([1]; 20 µM taxol, no PFK, SDS-PAGE of supernatant and pellet): practically all tubulin appears in the super- natants
- tubulin partition in pelleting experiment, with PFK (bundled microtubules) ([1]; 2 M PFK, 20 µM taxol, SDS-PAGE of supernatant and pellet): virtually no depolymer- izing effect
- tubulin assembly by turbidity in the presence of PFK ([1]; 2 M PFK, turbidity at 350 nm): PFK can overcome the inhibitory effect of KAR-2 on tubulin polymerization
- IC50 [2]: 310 nM
